Measured values published in US12031171B2, “Fatty acid esters against infections in fermentations” (PURAC BIOCHEM BV, priority 2016, dated 2024).

Key:
[1] = tested on: Clostridium perfringens ATCC 13124; type: cell-based; details: brain heart infusion broth, pH 6.0, 30° C., 0% oxygen
[2] = tested on: Clostridium pasteurianum JEG2; experiment: Mixed culture fermentation of Escherichia coli TG128 with Clostridium pasteurianum JEG2 (7 litre fermenters); type: cell-based; details: Fermenter 3, mixed culture
[3] = 0.05% (w/v) added, 25-35 hours, pH 6.5, 37° C.

SMILES: CCCCCCCCCC(=O)OC(C)C(=O)O (stereo not shown) [Decanoyl-lactylate]
- MIC value [1]: 0.04 % (w/v)

SMILES: CCCCCCCC(=O)OC(C)C(=O)[O-].[Na+] (stereo not shown) [Octanoyl-lactylate]
- MIC value [1]: 0.05 % (w/v)

SMILES: CCCCCCCCCCCCCC(=O)OC(C)C(=O)O (stereo not shown) [Tetradecanoyl-lactylate, tetradecanoyl-lactylate]
- results of Fermenter 3 compared with those at 0.05% (w/v) ([2]; 0.025% (w/v) added): Exactly the same results
- endospore bearing cells, microscopic examination of the culture broth ([2]; 0.05% (w/v) added): no endospore bearing cells
- foam and putrid smell produced by the fermenter ([2]; 0.05% (w/v) added): no foam or putrid smell
- impurity profile of fermentation broth compared with the Escherichia coli TG128 standard fermentation (Fermenter 1) ([2]; 0.05% (w/v) added): no difference in impurity profile
- performance of Fermenter 3 compared with Fermenter 1 (pure culture of Escherichia coli TG128) ([2]; 0.05% (w/v) added): in every respect similar
- 2-hydroxy butyric acid [2, 3]: <0.1 g/L
- % enantiomeric excess: (R − S)/(R + S) [2, 3]: 99.3%
- Acetic acid [2, 3]: 0.3 g/L
- Benzoic acid [2, 3]: <0.3 g/L
- Butyric acid [2, 3]: 0.1 g/L
- Citric acid [2, 3]: <0.5 g/L
- Ethanol [2, 3]: 0.08 g/L
- Formic acid [2, 3]: <0.2 g/L
- Fumaric acid [2, 3]: <0.2 g/L
- Glycolic acid [2, 3]: <0.5 g/L
- Maleic acid [2, 3]: <0.2 g/L
- Malic acid [2, 3]: <0.5 g/L
- Oxalic acid [2, 3]: <0.2 g/L
- Propionic acid [2, 3]: <0.1 g/L
- Pyruvic acid [2, 3]: <0.1 g/L
- R-lactate [2, 3]: 81.8 g/L
- S-lactate [2, 3]: 0.3 g/L
- Sorbic acid [2, 3]: <0.1 g/L
- Succinic acid [2, 3]: <0.1 g/L
- glucose [2, 3]: 2.3 g/L
- % enantiomeric excess: (R − S)/(R + S) ([2]; 0.05% (w/v) added, 25-35 hours, pH 6.5, 37° C., listed as tetradacanoyl-lactylate): ~100%
- MIC value [1]: 0.001 % (w/v)

SMILES: CCCCCCCCCCCCCCCC(=O)OC(C)C(=O)O (stereo not shown) [Hexadecanoyl-lactylate]
- MIC value [1]: 0.002 % (w/v)

SMILES: CCCCCCCCCCCCCCOS(=O)(=O)[O-].[Na+] [Sodium tetradecyl sulfate, reference compound]
- MIC value [1]: 0.001 % (w/v)

SMILES: CCCCCCCCC=CCCCCCCCC(=O)OC(C)C(=O)O (stereo not shown) [Olacta, Octadecenoyl-lactylate]
- MIC value [1]: 0.02 % (w/v)

SMILES: CCCCCCCCCCCC(=O)OC(C)C(=O)O (stereo not shown) [Dodecanoyl-lactylate]
- MIC value [1]: 0.002 % (w/v)

SMILES: CCCCCCCCCCCCCC(=O)O [Tetradecanoic acid, reference compound]
- MIC value [1]: >0.01 % (w/v)
